In US20080267948A1, “Croos-B Structure Binding Compounds” (priority 2005, published 2008):
Entries after “also recorded” stand apart in the source; their conditions may differ.

Assays:
Hb-AGE [1] = target: T1, Hb-AGE (Homo sapiens, UniProt P68871+P69905); assay: ELISA binding of tPA to immobilized Hb-AGE after pre-incubation with compounds; details: then tPA; for influence on tPA binding to immobilized Hb-AGE: Hb-AGE first overlayed with compound (concentration series); for % tPA binding (after compound incubation), HbAGE: immobilized Hb-AGE first exposed to 500 μg/ml compound, control = 100
T1 construct: purchased Sigma-Aldrich H7379
Procedure: Compounds were now diluted 10× in PBS/0.1% Tween20 (500 μg/ml compound). […] With the selection, similar binding assays are performed with misfolded OVA and Aβ. Finally, concentration series of the selected compounds are used in the binding studies.

amyloid-β(1-40) E22Q = target: T2, amyloid-β(1-40) E22Q (Homo sapiens, UniProt P05067, E693Q); assay: ELISA binding of tPA to immobilized Aβ after pre-incubation with compounds; details: for influence on tPA binding to immobilized Aβ: Aβ first overlayed with compound (concentration series), then tPA; for % tPA binding (after compound incubation), Aβ: 1 μg/ml coated Aβ first exposed to 500 μg/ml compound, then 80 nM tPA, control = 100
T2 construct: For similar ELISA's with DOVA and Aβ(1-40) E22Q, 1 μg/ml DOVA or Aβ was coated; purchased Peptide facility, Dutch Cancer Institute, Amsterdam; host or cells: synthetic peptide
Procedure: (§1) Compounds were now diluted 10× in PBS/0.1% Tween20 (500 μg/ml compound). […] With this approach a further selection of the compounds was achieved. Now, compounds that at least interact with HB-AGE are selected. With the selection, similar binding assays are performed with misfolded OVA and Aβ. Finally, concentration series of the selected compounds are used in the binding studies.

[2] = target: T3, heat-denatured misfolded ovalbumin (DOVA) (Gallus gallus, UniProt P01012); assay: ELISA binding of tPA to immobilized misfolded ovalbumin after pre-incubation with compounds; design: species or system chicken; details: for influence on tPA binding to immobilized misfolded OVA: misfolded OVA first overlayed with compound (concentration series), then tPA; for activity at 500 µg/mL: read-out: % tPA binding (after compound incubation), DOVA
T3 construct: purchased Sigma A5503
T3 sequence (P01012 2-386 limits assumed): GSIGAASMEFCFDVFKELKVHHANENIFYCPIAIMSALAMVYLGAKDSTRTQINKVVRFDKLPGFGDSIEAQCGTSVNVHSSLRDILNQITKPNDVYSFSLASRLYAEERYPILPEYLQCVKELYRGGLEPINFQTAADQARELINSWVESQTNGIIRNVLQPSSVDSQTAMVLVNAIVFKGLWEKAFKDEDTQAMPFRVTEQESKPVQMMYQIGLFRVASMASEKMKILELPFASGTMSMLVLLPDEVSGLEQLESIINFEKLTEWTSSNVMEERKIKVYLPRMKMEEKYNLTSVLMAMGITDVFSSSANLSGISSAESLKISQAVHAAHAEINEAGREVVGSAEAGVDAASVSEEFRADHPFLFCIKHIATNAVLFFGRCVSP
Procedure: as §1

heat-denatured ovalbumin = target: T4, heat-denatured ovalbumin (Gallus gallus, UniProt P01012); assay: Thioflavin T fluorescence of ovalbumin and small compounds; design: species or system chicken
T4 construct: purchased Sigma A5503
T4 sequence (P01012 1-386): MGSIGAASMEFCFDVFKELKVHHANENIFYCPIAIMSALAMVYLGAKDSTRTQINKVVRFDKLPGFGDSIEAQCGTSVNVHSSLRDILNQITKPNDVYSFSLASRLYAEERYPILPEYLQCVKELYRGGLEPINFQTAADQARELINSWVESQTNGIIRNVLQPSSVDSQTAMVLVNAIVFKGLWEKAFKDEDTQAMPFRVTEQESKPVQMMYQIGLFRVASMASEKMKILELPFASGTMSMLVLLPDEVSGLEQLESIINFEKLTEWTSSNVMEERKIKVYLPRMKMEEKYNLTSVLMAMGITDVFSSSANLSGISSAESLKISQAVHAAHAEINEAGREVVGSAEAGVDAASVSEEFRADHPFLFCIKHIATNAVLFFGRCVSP
Method in brief: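 Heat-denatured ovalbumin at 1 mg/ml in PBS, alone, with 1% v/v DMSO or with 1 mg/ml compound (also heat-denatured after compound addition), mixed 1:9 with 25 μM ThT in 50 mM glycine pH 9.0. Fluorescence read in duplicate at 435 nm excitation, 485 nm emission.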

Hb-AGE [3] = target: T1, Hb-AGE; assay: Binding of Hb-AGE from solution to immobilized small compounds
Procedure: To test the ability of the twelve selected compounds (see Table 7) to bind to misfolded proteins, […] Greiner Microlon high binding plates, Nunc amino Immobilizer plates and Nunc Maxisorp plates. Compounds were coated in 100 mM NaHCO3 pH 9.6, 50 μl/well, 1 h at room temperature with agitation. As a control, wells were coated with buffer only. After blocking of the plates, wells were overlayed with solutions of 0.1/1/10 μg/ml Hb-AGE or 10/100 μg/ml Aβ, in binding buffer (PBS/0.1% Tween20). After washing, binding of Hb-AGE was assessed by overlaying wells with 1 μg/ml hybridoma antibody 4B5, which binds to glycations(^2), followed by RAMPO. Binding of Aβ was visualized using 500× diluted anti-Aβ antibodies (mouse antibody beta-amyloid Clone 6F/3D #M0872, lot 00003503, DAKOCytomation; β-amyloid (H-43) SC-9129, 200 μg/ml rabbit polyclonal IgG, Santa Cruz Biotechnology) and RAMPO/SWARPO in a 1:1 ratio. Finally, wells were overlayed with OPD/H2O2 solution, and H2SO4, before absorbance readings at 490 nm.

ovalbumin = target: T5, ovalbumin (Gallus gallus, UniProt P01012); assay: Transmission electron microscopy of ovalbumin heated in the presence of small compounds; design: species or system chicken; details: 1 mg/ml ovalbumin heated with 1 mg/ml compound
T5 construct: purchased Sigma A5503
T5 sequence (P01012 1-386): T4 sequence (P01012 1-386)
Method in brief: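 Ovalbumin at 1 mg/ml was applied to carbon-coated Formvar copper grids, washed with PBS and water, then stained 2 min in 2% methylcellulose with 0.4% uranyl acetate, pH 4. Grids were dried and imaged by TEM at 80 kV.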

T2 sequence (P05067 672-711 E693Q): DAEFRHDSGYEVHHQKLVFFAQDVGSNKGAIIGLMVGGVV
T1 sequence (P69905 2-142 limits assumed): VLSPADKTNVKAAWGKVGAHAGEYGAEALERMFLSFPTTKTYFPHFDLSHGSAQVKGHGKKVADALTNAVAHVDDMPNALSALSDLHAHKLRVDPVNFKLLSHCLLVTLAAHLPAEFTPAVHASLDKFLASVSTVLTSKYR
T1 sequence (P68871 2-147 limits assumed): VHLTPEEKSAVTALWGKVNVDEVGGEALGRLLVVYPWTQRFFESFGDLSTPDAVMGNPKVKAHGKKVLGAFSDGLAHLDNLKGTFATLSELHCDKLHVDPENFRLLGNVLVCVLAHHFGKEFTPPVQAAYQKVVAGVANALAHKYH

| SMILES | influence on tPA binding to immobilized Hb-AGE (Hb-AGE [1]) | influence on tPA binding to immobilized Aβ (amyloid-β(1-40) E22Q) | influence on tPA binding to immobilized misfolded OVA [2] | influence on Thioflavin T fluorescence with misfolded OVA (heat-denatured ovalbumin; 1 mg/ml compound, 1 mg/ml OVA) | reduction in Thioflavin T fluorescence enhancement, compound and OVA heated together (heat-denatured ovalbumin; 1 mg/ml compound, 1 mg/ml OVA, PBS/1% DMSO) [%] | inhibition at 1000 µg/mL (heat-denatured ovalbumin; 1 mg/ml compound, 1 mg/ml OVA, PBS/1% DMSO, read-out: inhibition of Thioflavin T fluorescence, compound mixed with pre-formed misfolded OVA) [%] | formation of Thioflavin T binding sites in heated OVA (heat-denatured ovalbumin; OVA and compound heated together) | Signal (a.u.) (Hb-AGE [3]; Greiner Microlon, coat 100 μg/ml, Hb-AGE 10 μg/ml) | Signal (a.u.) (Hb-AGE [3]; Nunc Maxisorp, coat 100 μg/ml, Hb-AGE 10 μg/ml) | appearance of ovalbumin heated in the presence of compound on TEM image (ovalbumin; hydrate) | % tPA binding (after compound incubation), HbAGE (Hb-AGE [1]) [%] | % tPA binding (after compound incubation), Aβ (amyloid-β(1-40) E22Q) [%] | activity at 500 µg/mL [2] [%] | Signal (a.u.) (Hb-AGE [3]; Nunc Maxisorp, coat 100 μg/ml, Hb-AGE 1 μg/ml) | Signal (a.u.) (Hb-AGE [3]; Nunc amino Immobilizer, coat 1 μg/ml, Hb-AGE 10 μg/ml) | appearance of ovalbumin heated in the presence of compound on TEM image (ovalbumin) | Signal (a.u.) (Hb-AGE [3]; Nunc Maxisorp, coat 100 μg/ml, Hb-AGE 0.1 μg/ml) |
| --- | --- | --- | --- | --- | --- | --- | --- | --- | --- | --- | --- | --- | --- | --- | --- | --- | --- |
| O=c1oc2c(O)c(O)cc3c(=O)oc4c(O)c(O)cc1c4c23 [compound 117, Ellagic acid hydrate] | Stimulated tPA binding to immobilized misfolded protein (Hb- | Stimulated tPA binding to immobilized misfolded protein (Hb- | Stimulated tPA binding to immobilized misfolded protein (Hb- | Inhibition on Thioflavin T fluorescence with misfolded OVA | 90 | ~50 | Inhibition of formation of Thioflavin T binding sites in heated | 0.13 | 0.15 | less OVA aggregates after heating in the presence of the; also recorded: Clusters of needle-like structures. No aggregates |  |  |  |  |  |  |  |
| COc1cc2c(cc1O)C[C@H]1c3c(cc(OC)c(O)c3-2)CCN1C [compound 202, Isoboldine] | Stimulated tPA binding to immobilized misfolded protein (Aβ, | Stimulated tPA binding to immobilized misfolded protein (Aβ, | Stimulated tPA binding to immobilized misfolded protein (Aβ, | Inhibition on Thioflavin T fluorescence with misfolded OVA |  |  |  |  |  |  | 250 | 250 | 420 | 0.46 | 0.20 | Larger and more dense aggregates than control. Small |  |
| COc1cc2c(cc1OC)-c1c(O)c(OC)cc3c1[C@H](C2)N(C)CC3 [compound 201, Thaliporphine, thalicmidine] | Stimulated tPA binding to immobilized misfolded protein (Hb- |  |  | Inhibition of Thioflavin T fluorescence with misfolded OVA |  |  |  |  |  |  | 110 | 400 | 400 |  |  | Spherical aggregates with background of smaller | 0.55 |
